Laboratory results as given in publication PMC6142817, “New Urea Derivatives Are Effective Anti-senescence Compounds Acting Most Likely via a Cytokinin-Independent Mechanism” (Frontiers in Plant Science, 2018).
pEC50, pIC50: −log10 of the molar value. Several values for one entry are separate records, joined by “and”; a condition that tells them apart may be missing. Equal values may be shown once. Read-outs that look alike come from different tables or passages of the source.

What was measured:
[1] = tested on: Amaranthus caudatus cotyledon-hypocotyl explants; experiment: Amaranthus bioassay (betacyanin synthesis); format: cell-based, Amaranthus caudatus var. atropurpurea
Experimental: (§1) Tobacco callus, Amaranthus and Wheat leaf senescence assay (WLSA) were performed as described by Holub et al. ([1998]) including the number of repetitions in each assay. An exception to the published protocols was that the tobacco callus assay was performed in 6-well microtiter plates (with each well containing 3 ml of Murashige Skoog medium into which 0.1 g of callus was added). Each compound was tested at least twice in each assay and in a wider concentration range to obtain concentration-dependent activity curves. IC50 means compound concentration at which chlorophyll degradation is inhibited by 50% and EC50 means half the maximal effective concentration.
(§2) Amaranthus assay evaluates the induction of betacyanin synthesis in Amaranthus (Amaranthus caudatus var. atropurpurea) cotyledons, which is induced by cytokinins (Bamberger and Mayer, [1960]). The WLSA evaluates the ability of compounds to retard chlorophyll degradation in excised wheat leaves that are kept in the dark. The wheat leaf segments (Triticum aestivum cv. Hereward) were used in all other experiments requiring wheat. Arabidopsis (Arabidopsis thaliana) leaf senescence assay was performed with detached leaves from 30-day-old plants, which were grown in soil in phytotron under standard conditions (Rivero et al., [2014]). Four leaves of a combined weight of 60 mg were placed in a six-well plate and stored in the dark for 12 days at 22°C. The leaves (except the fresh control leaves) floated on water solutions of tested compounds. Fresh control leaves were leaves detached from a plant and immediately used for chlorophyll determination. The duration of the senescence assay of Arabidopsis leaves was prolonged to highlight the difference in chlorophyll content between a negative control and treatments. Arabidopsis leaves were losing chlorophyll more slowly than wheat leaves. Chlorophyll extraction and spectrophotometric determination of its content was done according to Holub et al. ([1998]).

[2] = tested on: detached wheat leaves (membrane lipid peroxidation); experiment: TBARS content (lipid peroxidation) in leaves from WLSA; format: cell-based, Triticum aestivum; details: 5 days in the dark, DMSO control = 100%
Experimental: Four leaf segments of combined weight of 100 mg from WLSA (5 days in the dark) were used for the determination of TBARS. Each sample was done in five repetitions (5 × 100 mg). The peroxidation of leaf membrane lipids was determined as described by Kováčik et al. ([2006]), with minor modifications—wheat leaves were extracted with 80% methanol and the trichloroacetic acid content was decreased to 0.1%.

CRE1/AHK4 = CRE1/AHK4 (Arabidopsis thaliana, UniProt Q9C5U0); experiment: Cytokinin receptor activation assay in E. coli (CRE1/AHK4); format: cell-based; set-up: expressed in transfected cells; host or cells: Escherichia coli strain KMI001, plasmid pIN-IIIAHK4; details: E. coli bacterial receptor assay
Description: (§3) The activity of this enzyme is finally measured in the assay and corresponds to the ability of the tested compound to activate this cytokinin receptor. Both assays were done at least twice and the presented graphs are the most representative examples.

[3] = tested on: excised wheat leaves (chlorophyll degradation in the dark); experiment: Wheat leaf senescence assay (WLSA); format: cell-based, Triticum aestivum cv. Hereward; details: for Chlorophyll content (% of the fresh control): 5 days in the dark, DMSO control = 0; for chlorophyll remaining, % of the initial chlorophyll: 21 days after leaf detachment, dark
Experimental: as §1, §2

AHK3 = biological target: T1, AHK3 (Arabidopsis thaliana, UniProt Q9C5U1); experiment: Cytokinin receptor activation assay in E. coli (AHK3); format: cell-based
T1 construct: expressed in transfected cells; host or cells: Escherichia coli strain KMI001, plasmid pSTV28-AHK3
T1 sequence (Q9C5U1 1-1036): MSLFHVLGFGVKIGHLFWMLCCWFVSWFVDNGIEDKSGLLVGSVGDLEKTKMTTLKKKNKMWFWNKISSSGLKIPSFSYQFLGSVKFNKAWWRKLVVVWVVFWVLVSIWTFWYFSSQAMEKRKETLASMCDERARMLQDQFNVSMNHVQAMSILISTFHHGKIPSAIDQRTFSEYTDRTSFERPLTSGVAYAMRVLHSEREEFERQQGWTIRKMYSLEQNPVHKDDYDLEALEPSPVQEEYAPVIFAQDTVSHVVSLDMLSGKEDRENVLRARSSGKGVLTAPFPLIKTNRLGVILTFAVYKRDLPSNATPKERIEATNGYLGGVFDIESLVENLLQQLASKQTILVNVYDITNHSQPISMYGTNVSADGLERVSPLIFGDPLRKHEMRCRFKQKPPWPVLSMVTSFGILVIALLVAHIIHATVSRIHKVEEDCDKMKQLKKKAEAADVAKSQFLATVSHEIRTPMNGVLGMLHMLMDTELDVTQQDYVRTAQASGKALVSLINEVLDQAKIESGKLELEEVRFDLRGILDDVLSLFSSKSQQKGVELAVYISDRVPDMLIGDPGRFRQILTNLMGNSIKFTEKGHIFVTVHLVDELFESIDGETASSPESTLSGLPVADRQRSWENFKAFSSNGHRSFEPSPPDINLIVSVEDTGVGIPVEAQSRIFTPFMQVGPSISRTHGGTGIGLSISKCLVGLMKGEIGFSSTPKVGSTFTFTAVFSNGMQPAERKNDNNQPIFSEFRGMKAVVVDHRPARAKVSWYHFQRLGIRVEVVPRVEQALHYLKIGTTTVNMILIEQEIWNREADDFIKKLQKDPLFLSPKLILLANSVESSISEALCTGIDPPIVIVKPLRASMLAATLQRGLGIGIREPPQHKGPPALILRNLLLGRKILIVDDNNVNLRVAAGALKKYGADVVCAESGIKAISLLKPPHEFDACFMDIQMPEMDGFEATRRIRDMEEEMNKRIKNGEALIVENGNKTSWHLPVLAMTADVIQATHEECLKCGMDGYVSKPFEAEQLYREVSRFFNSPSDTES
Description: as §3

CRE1/AHK4, sequence (Q9C5U0 whole entry): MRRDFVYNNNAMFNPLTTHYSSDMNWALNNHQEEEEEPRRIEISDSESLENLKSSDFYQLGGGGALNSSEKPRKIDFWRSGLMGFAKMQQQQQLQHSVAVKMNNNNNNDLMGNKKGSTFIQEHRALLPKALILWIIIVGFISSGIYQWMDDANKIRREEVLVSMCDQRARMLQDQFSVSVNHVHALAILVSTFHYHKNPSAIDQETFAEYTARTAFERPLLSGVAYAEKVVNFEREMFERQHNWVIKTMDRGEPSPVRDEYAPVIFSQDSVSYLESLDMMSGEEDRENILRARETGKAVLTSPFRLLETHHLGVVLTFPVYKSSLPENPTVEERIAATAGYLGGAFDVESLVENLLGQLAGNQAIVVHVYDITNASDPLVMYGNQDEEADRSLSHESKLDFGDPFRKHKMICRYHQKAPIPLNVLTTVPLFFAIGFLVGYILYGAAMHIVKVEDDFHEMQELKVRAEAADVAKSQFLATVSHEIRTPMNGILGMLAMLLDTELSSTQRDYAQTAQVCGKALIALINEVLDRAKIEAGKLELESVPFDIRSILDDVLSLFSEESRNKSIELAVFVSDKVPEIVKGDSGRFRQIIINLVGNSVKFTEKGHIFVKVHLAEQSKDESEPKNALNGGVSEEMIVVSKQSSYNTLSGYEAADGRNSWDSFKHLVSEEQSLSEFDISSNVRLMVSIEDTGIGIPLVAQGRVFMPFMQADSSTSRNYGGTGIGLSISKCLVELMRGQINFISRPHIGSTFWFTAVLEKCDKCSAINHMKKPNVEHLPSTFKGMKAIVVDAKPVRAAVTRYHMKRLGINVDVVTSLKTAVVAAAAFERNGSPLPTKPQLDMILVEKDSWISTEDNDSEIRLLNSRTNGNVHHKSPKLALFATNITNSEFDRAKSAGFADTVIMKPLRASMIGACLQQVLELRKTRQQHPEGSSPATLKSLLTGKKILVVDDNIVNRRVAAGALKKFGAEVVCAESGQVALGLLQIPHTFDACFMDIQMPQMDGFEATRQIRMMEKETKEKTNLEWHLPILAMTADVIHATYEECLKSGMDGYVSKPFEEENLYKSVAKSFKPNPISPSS

COCCNC(=O)Nc1cnns1 [ASES, 1-(2-methoxy-ethyl)-3-1,2,3-thiadiazol-5-yl-urea]
fold lower potency than BA in inducing betacyanin [1]: ~5 fold
fold lower potency than TDZ in inducing betacyanin [1]: approximately 1,000 fold
pEC50 ([1]; Amaranthus caudatus, betacyanin synthesis, N.A. = not active, read-out: Amaranthus bioassay (EC50)): 5.40
TBARS content (relative %) ([2]; 0.01 μM): 105 (±5) %
TBARS content (relative %) ([2]; 0.1 μM): 91 (±10) %
TBARS content (relative %) ([2]; 1 μM): 47 (±4) %
TBARS content (relative %) ([2]; 10 μM): 31 (±5) %
TBARS content (relative %) ([2]; 100 μM, fresh control = 0): 24 (±6) % and 24%
ability to activate the CRE1/AHK4 receptor (CRE1/AHK4): No other derivative from the series, including ASES, was able to activate
Chlorophyll content (% of the fresh control) ([3]; 0.01 μM): 8 (±4) %
Chlorophyll content (% of the fresh control) ([3]; 0.1 μM): 25 (±7) %
Chlorophyll content (% of the fresh control) ([3]; 1 μM): 51 (±8) %
Chlorophyll content (% of the fresh control) ([3]; 10 μM): 79 (±8) %
chlorophyll remaining, % of the initial chlorophyll ([3]; 10 μM): ~50%
Chlorophyll content (% of the fresh control) ([3]; 100 μM): 98 (±7) %
pIC50 ([3]; Triticum aestivum, 120 h, detached wheat leaves in the dark, 5 days, concentration at which chlorophyll degradation is inhibited by 50%, read-out: Senescence bioassay (IC50)): 6.02
times more effective than TDZ in WLSA ([3]; ratio of IC50 values): approximately 13 times
pEC50 (AHK3; E. coli bacterial receptor assay, read-out: AHK3 receptor activation EC50): < 4.30

O=C(Nc1ccccc1)Nc1cnns1 [TDZ, 1-phenyl-3-(1,2,3-thiadiazol-5-yl)urea, reference compound]
activity in Amaranthus assay, fold exceeding all other cytokinins [1]: at least 100 fold
EC50 ([1]; Amaranthus caudatus, read-out: Amaranthus bioassay (EC50, μM)): 0.004 µM
TBARS content (relative %) ([2]; 0.01 μM): 101 (±5) %
TBARS content (relative %) ([2]; 0.1 μM): 80 (±3) %
TBARS content (relative %) ([2]; 1 μM): 71 (±6) %
TBARS content (relative %) ([2]; 10 μM): 68 (±8) %
TBARS content (relative %) ([2]; 100 μM, fresh control = 0): 55 (±10) %
Chlorophyll content (% of the fresh control) ([3]; 0.01 μM): 8 (±2) %
Chlorophyll content (% of the fresh control) ([3]; 0.1 μM): 18 (±5) %
Chlorophyll content (% of the fresh control) ([3]; 1 μM): 34 (±7) %
Chlorophyll content (% of the fresh control) ([3]; 10 μM): 50 (±11) %
chlorophyll remaining, % of the initial chlorophyll ([3]; 10 μM): approximately 15%
Chlorophyll content (% of the fresh control) ([3]; 100 μM): 91 (±2) %
IC50 ([3]; Triticum aestivum, 120 h, read-out: Senescence bioassay (IC50, μM)): 13 µM
pEC50 (AHK3): 6.98
